According to patent publication US9889115B2, “Fitness assay and associated methods” (priority 1998, dated 2018):
Like-named read-outs stand apart in the source and are kept apart here.

What was measured:
Format in all cases: cell-based
[1] = test system: multidrug-resistant HIV-1 clinical isolate, patient 22; assay: IC50 against multidrug-resistant clinical isolates (Table 9a)
Experimental: (§1) The mutant multidrug-resistant HIV-1 strains corresponding to each patient, numbered 9-35, were genetically analyzed in terms of the nucleic acid sequences of the protease (PR) and a portion of the reverse transcriptase (RT) genes from which mutations in these enzymes were determined. The mutations in the protease and reverse transcriptase of the multidrug-resistant viruses isolated from each patient are shown below in Table 9b.

[2] = test system: multidrug-resistant HIV-1 clinical isolate, patient 34; assay: as above
Experimental: as §1

[3] = test system: wild-type HIV-1 (WT); assay: IC50 against wild-type HIV-1 (Table 9a); conditions: (WT)
[4] = test system: multidrug-resistant HIV-1 clinical isolate, patient 9; assay: microbe, parasite or virus in culture; conditions: Patient Isolate 9
Experimental: as §1

[5] = test system: multidrug-resistant HIV-1 clinical isolate, patient 15; assay: microbe, parasite or virus in culture; conditions: Patient Isolate 15
Experimental: as §1

[6] = test system: multidrug-resistant HIV-1 clinical isolate, patient 31; assay: microbe, parasite or virus in culture; conditions: Patient Isolate 31
Experimental: as §1

[7] = test system: multidrug-resistant HIV-1 clinical isolate, patient 14; assay: microbe, parasite or virus in culture; conditions: Patient Isolate 14
Experimental: as §1

[8] = test system: multidrug-resistant HIV-1 clinical isolate, patient 27; assay: microbe, parasite or virus in culture; conditions: Patient Isolate 27
Experimental: as §1

[9] = test system: multidrug-resistant HIV-1 clinical isolate, patient 11; assay: microbe, parasite or virus in culture; conditions: Patient Isolate 11
Experimental: as §1

[10] = test system: multidrug-resistant HIV-1 clinical isolate, patient 20; assay: microbe, parasite or virus in culture; conditions: Patient Isolate 20
Experimental: as §1

[11] = test system: multidrug-resistant HIV-1 clinical isolate, patient 23; assay: microbe, parasite or virus in culture; conditions: Patient Isolate 23
Experimental: as §1

[12] = test system: multidrug-resistant HIV-1 clinical isolate, patient 30; assay: microbe, parasite or virus in culture; conditions: Patient Isolate 30
Experimental: as §1

[13] = test system: multidrug-resistant HIV-1 clinical isolate, patient 32; assay: microbe, parasite or virus in culture; conditions: Patient Isolate 32
Experimental: as §1

[14] = test system: multidrug-resistant HIV-1 clinical isolate, patient 12; assay: microbe, parasite or virus in culture; conditions: Patient Isolate 12
Experimental: as §1

[15] = test system: multidrug-resistant HIV-1 clinical isolate, patient 16; assay: microbe, parasite or virus in culture; conditions: Patient Isolate 16
Experimental: as §1

[16] = test system: multidrug-resistant HIV-1 clinical isolate, patient 29; assay: microbe, parasite or virus in culture; conditions: Patient Isolate 29
Experimental: as §1

[17] = test system: multidrug-resistant HIV-1 clinical isolate, patient 18; assay: microbe, parasite or virus in culture; conditions: Patient Isolate 18
Experimental: as §1

[18] = test system: multidrug-resistant HIV-1 clinical isolate, patient 28; assay: microbe, parasite or virus in culture; conditions: Patient Isolate 28
Experimental: as §1

[19] = test system: multidrug-resistant HIV-1 clinical isolate, patient 35; assay: microbe, parasite or virus in culture; conditions: Patient Isolate 35
Experimental: as §1

[20] = test system: multidrug-resistant HIV-1 clinical isolate, patient 19; assay: microbe, parasite or virus in culture; conditions: Patient Isolate 19
Experimental: as §1

[21] = test system: multidrug-resistant HIV-1 clinical isolate, patient 21; assay: microbe, parasite or virus in culture; conditions: Patient Isolate 21
Experimental: as §1

[22] = test system: multidrug-resistant HIV-1 clinical isolate, patient 13; assay: microbe, parasite or virus in culture; conditions: Patient Isolate 13
Experimental: as §1

[23] = test system: multidrug-resistant HIV-1 clinical isolate, patient 10; assay: microbe, parasite or virus in culture; conditions: Patient Isolate 10
Experimental: as §1

[24] = test system: multidrug-resistant HIV-1 clinical isolate, patient 33; assay: microbe, parasite or virus in culture; conditions: Patient Isolate 33
Experimental: as §1

[25] = test system: HIV-1LAI; assay: PHA-PBMC assay, p24 Gag protein production; conditions: Human immunodeficiency virus 1; HIV-1LAI, SI; PHA-PBMC, p24 (Table 3)
[26] = test system: HIV-1BAL; assay: PHA-PBMC assay, p24 Gag protein production; conditions: Human immunodeficiency virus 1; HIV-1BAL, NSI; PHA-PBMC, p24 (Table 3)
[27] = test system: multidrug-resistant HIV-1 clinical isolate, patient 2; assay: PHA-PBMC assay, p24 Gag protein production; conditions: Human immunodeficiency virus 1; Patient/Isolate code 2; PHA-PBMC, p24
Experimental: (§2) The patient profiles are shown below in Table 2.
(§3) To determine protease inhibitory activity against multidrug resistant HIV, the IC50's were measured against a panel of clinically isolated mutant HIV isolates.
(§4) All drug sensitivities were performed in triplicate. In order to determine whether the HIV isolates were syncitium inducing (SI) or non-syncitium inducing (NSI), an aliquot of viral stock supernatant, containing 100 TCID50, was cultured with 1×10^5 MT-2 cells in a 12-well plate. Cultures were maintained for four weeks and were examined for syncytium formation twice a week.

[28] = test system: multidrug-resistant HIV-1 clinical isolate, patient 5; assay: PHA-PBMC assay, p24 Gag protein production; conditions: Human immunodeficiency virus 1; Patient/Isolate code 5; PHA-PBMC, p24
Experimental: as §2, §3, §4

[29] = test system: multidrug-resistant HIV-1 clinical isolate, patient 7; assay: PHA-PBMC assay, p24 Gag protein production; conditions: Human immunodeficiency virus 1; Patient/Isolate code 7; PHA-PBMC, p24
Experimental: as §2, §3, §4

[30] = test system: multidrug-resistant HIV-1 clinical isolate, patient 4; assay: PHA-PBMC assay, p24 Gag protein production; conditions: Human immunodeficiency virus 1; Patient/Isolate code 4; PHA-PBMC, p24
Experimental: as §2, §3, §4

[31] = test system: multidrug-resistant HIV-1 clinical isolate, patient 6; assay: PHA-PBMC assay, p24 Gag protein production; conditions: Human immunodeficiency virus 1; Patient/Isolate code 6; PHA-PBMC, p24
Experimental: as §2, §3, §4

[32] = test system: multidrug-resistant HIV-1 clinical isolate, patient 3; assay: PHA-PBMC assay, p24 Gag protein production; conditions: Human immunodeficiency virus 1; Patient/Isolate code 3; PHA-PBMC, p24
Experimental: as §2, §3, §4

[33] = test system: HIV-1ERS104pre; assay: PHA-PBMC assay, p24 Gag protein production; conditions: Human immunodeficiency virus 1; HIV-1ERS104pre, SI; PHA-PBMC, p24
Experimental: as §2, §3, §4

[34] = test system: multidrug-resistant HIV-1 clinical isolate, patient 1; assay: PHA-PBMC assay, p24 Gag protein production; conditions: Human immunodeficiency virus 1; Patient/Isolate code 1; PHA-PBMC, p24
Experimental: as §2, §3, §4

[35] = test system: multidrug-resistant HIV-1 clinical isolate, patient 8; assay: PHA-PBMC assay, p24 Gag protein production; conditions: Human immunodeficiency virus 1; Patient/Isolate code 8; PHA-PBMC, p24
Experimental: as §2, §3, §4

[36] = test system: multidrug-resistant HIV-1 clinical isolate, patient 17; assay: microbe, parasite or virus in culture; conditions: Patient Isolate 17
Experimental: as §1

[37] = Patient Isolate 22, read-out: IC50
[38] = Patient Isolate 34, read-out: IC50

O=c1[nH]cnc2c1ncn2[C@H]1CC[C@@H](CO)O1 [DDI, 2′3′-dideoxyinosine]
IC50 [1, 37]: 3700 nM
IC50 [2, 38]: 9100 nM
IC50 [3]: 895 nM
IC50 [4]: 700 nM
IC50 [5]: 2200 nM
IC50 [6]: 2600 nM
IC50 [7]: 2400 nM
IC50 [8]: 2600 nM
IC50 [9]: 2400 nM
IC50 [10]: 7100 nM
IC50 [11]: 1800 nM
IC50 [12]: 2800 nM
IC50 [13]: 8400 nM
IC50 [14]: 900 nM
IC50 [15]: 3500 nM
IC50 [16]: 3800 nM
IC50 [17]: 2200 nM
IC50 [18]: 2800 nM
IC50 [19]: 17000 nM
IC50 [20]: 36600 nM
IC50 [21]: 1000 nM
IC50 [22]: 500 nM
IC50 [23]: 1700 nM
IC50 [24]: 2000 nM

CC(C)(C)NC(=O)[C@@H]1CN(Cc2cccnc2)CCN1C[C@@H](O)C[C@@H](Cc1ccccc1)C(=O)N[C@H]1c2ccccc2C[C@H]1O [IDV, Indinavir]
IC50 ([1]; Human immunodeficiency virus 1): 173 nM
IC50 ([2]; Human immunodeficiency virus 1): 595 nM
IC50 [25]: 19 nM
IC50 [26]: 5.6 nM
IC50 [27]: 240 nM
IC50 [28]: 800 nM
IC50 [29]: > 1000 nM
IC50 [30]: 240 nM
IC50 [31]: 370 nM
IC50 [32]: 460 nM
IC50 [33]: 13 nM
IC50 [34]: > 1000 nM
IC50 [35]: > 1000 nM
IC50 ([3]; Human immunodeficiency virus 1): 20 nM
IC50 ([4]; Human immunodeficiency virus 1): 1090 nM
IC50 ([5]; Human immunodeficiency virus 1): 265 nM
IC50 ([6]; Human immunodeficiency virus 1): 251 nM
IC50 ([7]; Human immunodeficiency virus 1): 89 nM
IC50 ([8]; Human immunodeficiency virus 1): > 1250 nM
IC50 ([9]; Human immunodeficiency virus 1): 12 nM
IC50 ([36]; Human immunodeficiency virus 1): 502 nM
IC50 ([10]; Human immunodeficiency virus 1): 591 nM
IC50 ([11]; Human immunodeficiency virus 1): 461 nM
IC50 ([12]; Human immunodeficiency virus 1): 270 nM
IC50 ([13]; Human immunodeficiency virus 1): 223 nM
IC50 ([14]; Human immunodeficiency virus 1): > 1250 nM
IC50 ([15]; Human immunodeficiency virus 1): 384 nM
IC50 ([16]; Human immunodeficiency virus 1): 569 nM
IC50 ([17]; Human immunodeficiency virus 1): 369 nM
IC50 ([18]; Human immunodeficiency virus 1): 1040 nM
IC50 ([19]; Human immunodeficiency virus 1): 509 nM
IC50 ([20]; Human immunodeficiency virus 1): 784 nM
IC50 ([22]; Human immunodeficiency virus 1): > 1250 nM
IC50 ([23]; Human immunodeficiency virus 1): > 1250 nM
IC50 ([24]; Human immunodeficiency virus 1): 133 nM

Cc1cn([C@H]2C[C@H](N=[N+]=[N-])[C@@H](CO)O2)c(=O)[nH]c1=O [AZT, 3′-azido-2′,3′-dideoxythymidine]
IC50 [1, 37]: 1020 nM
IC50 [3]: 22 nM
IC50 [4]: 10 nM
IC50 [5]: 200 nM
IC50 [7]: 640 nM
IC50 [8]: 30 nM
IC50 [9]: 110 nM
IC50 [36]: > 1250 nM
IC50 [10]: 1250 nM
IC50 [11]: 190 nM
IC50 [12]: 160 nM
IC50 [13]: 320 nM
IC50 [14]: 70 nM
IC50 [15]: 970 nM
IC50 [16]: > 1250 nM
IC50 [17]: 550 nM
IC50 [18]: > 1250 nM
IC50 [19]: 880 nM
IC50 [20]: > 1250 nM
IC50 [21]: > 1250 nM
IC50 [22]: 170 nM
IC50 [23]: 20 nM
IC50 [24]: 510 nM

Cc1cn([C@H]2C=C[C@@H](CO)O2)c(=O)[nH]c1=O [Compound D4T]
IC50 [1, 37]: 4680 nM
IC50 [2, 38]: 7710 nM
IC50 [3]: 1060 nM
IC50 [4]: 910 nM
IC50 [5]: 1100 nM
IC50 [6]: 3110 nM
IC50 [7]: 1100 nM
IC50 [8]: 4000 nM
IC50 [9]: 3100 nM
IC50 [36]: 4280 nM
IC50 [10]: 22500 nM
IC50 [11]: 1000 nM
IC50 [12]: 2520 nM
IC50 [13]: 2410 nM
IC50 [14]: 1230 nM
IC50 [15]: 1810 nM
IC50 [16]: 5290 nM
IC50 [17]: 2080 nM
IC50 [18]: 5440 nM
IC50 [19]: 18100 nM
IC50 [20]: 35600 nM
IC50 [21]: 3280 nM
IC50 [22]: 780 nM
IC50 [23]: 1290 nM
IC50 [24]: 2730 nM
